PubChem BioAssay (NCI)
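96-well plates; 48 h exposure; 5 concentrations. Endpoints by linear interpolation between flanking doses. Not reached: highest tested concentration assigned. GI50: concentration for 50% inhibition of growth. TGI: total growth inhibition.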

What was measured:
Assay in all cases: inhibition of tumour cell growth, NCI panel, 48 h
[1] = test system: DU-145 prostate
[2] = test system: CCRF-CEM leukemia
[3] = test system: NCI/ADR-RES ovarian
[4] = test system: LOX IMVI melanoma
[5] = test system: EKVX NSCLC
[6] = test system: 786-0 renal
[7] = test system: A549 NSCLC
[8] = test system: MALME-3M melanoma
[9] = test system: SF-539 CNS
[10] = test system: SR leukemia
[11] = test system: PC-3 prostate
[12] = test system: SK-MEL-2 melanoma
[13] = test system: SNB-19 CNS
[14] = test system: HS 578T breast
[15] = test system: UO-31 renal
[16] = test system: NCI-H23 lung
[17] = test system: MCF7 breast
[18] = test system: SN12C renal
[19] = test system: IGROV1 ovarian
[20] = test system: HT29 colon
[21] = test system: SK-MEL-28 melanoma
[22] = test system: TK-10 renal
[23] = test system: COLO 205 colon
[24] = test system: UACC-257 melanoma
[25] = test system: ACHN renal
[26] = test system: RPMI-8226 leukemia
[27] = test system: HCT-15 colon
[28] = test system: OVCAR-4 ovarian
[29] = test system: SNB-75 CNS
[30] = test system: HOP-62 NSCLC
[31] = test system: OVCAR-3 ovarian
[32] = test system: NCI-H522 lung
[33] = test system: M14 melanoma
[34] = test system: SF-268 CNS
[35] = test system: MDA-MB-231 breast
[36] = test system: HOP-92 NSCLC
[37] = test system: A498 renal
[38] = test system: RXF 393 renal
[39] = test system: U251 CNS
[40] = test system: K-562 leukemia
[41] = test system: BT-549 breast
[42] = test system: HL-60(TB) leukemia
[43] = test system: SK-MEL-5 melanoma
[44] = test system: CAKI-1 renal
[45] = test system: NCI-H460 lung
[46] = test system: SK-OV-3 ovarian
[47] = test system: HCC-2998 colon
[48] = test system: MDA-MB-435
[49] = test system: KM12 colon
[50] = test system: T-47D breast
[51] = test system: UACC-62 melanoma
[52] = test system: OVCAR-5 ovarian
[53] = test system: SW-620 colon
[54] = test system: MOLT-4 leukemia
[55] = test system: NCI-H226 lung

CC(C)(C)NCCC(O)c1cc2c(Cl)cc(Cl)cc2c2cc(C(F)(F)F)ccc12 (stereo unspecified)
GI50 [1]: 1.97 µM
TGI [1]: 3.5 µM

COc1ccc(NCc2cnc3nc(N)nc(N)c3c2C)cc1
TGI [2]: > 100 µM
TGI [3]: > 100 µM
TGI [4]: > 100 µM
TGI [5]: > 100 µM
TGI [6]: > 100 µM
TGI [7]: > 100 µM
TGI [8]: > 100 µM
TGI [9]: > 100 µM
TGI [10]: > 100 µM
TGI [11]: > 100 µM
TGI [12]: > 100 µM
TGI [13]: > 100 µM
TGI [14]: > 100 µM
TGI [15]: > 100 µM
TGI [16]: > 100 µM
TGI [17]: > 100 µM
TGI [18]: > 100 µM
TGI [19]: > 100 µM
TGI [20]: > 100 µM
TGI [21]: > 100 µM
TGI [22]: > 100 µM
TGI [23]: > 100 µM
TGI [24]: > 100 µM
TGI [25]: > 100 µM
TGI [26]: > 100 µM
TGI [27]: > 100 µM
TGI [28]: > 100 µM
TGI [29]: > 100 µM
TGI [30]: > 100 µM
TGI [31]: > 100 µM
TGI [32]: > 100 µM
TGI [33]: > 100 µM
TGI [34]: > 100 µM
TGI [35]: 0.962 µM
TGI [36]: > 89.5 µM
TGI [37]: > 100 µM
TGI [38]: > 100 µM
TGI [39]: > 100 µM
TGI [40]: > 100 µM
TGI [41]: > 100 µM
TGI [42]: > 100 µM
TGI [43]: > 100 µM
TGI [44]: > 100 µM
TGI [45]: > 100 µM
TGI [46]: > 100 µM
TGI [47]: > 31.6 µM
TGI [48]: > 100 µM
TGI [49]: > 100 µM
TGI [50]: > 92.8 µM
TGI [51]: > 100 µM
TGI [52]: > 100 µM
TGI [53]: > 100 µM
TGI [54]: > 100 µM
TGI [55]: > 93.9 µM
